This is an account of results in paper PMC10393279, “Can BioSAXS detect ultrastructural changes of antifungal compounds in Candida albicans?–an exploratory study” (Frontiers in Pharmacology, 2023).

Like-named read-outs stand apart in the source and are kept apart here. No end group written: not given here.

Data set [1] relates to C. albicans. In words: microbe, parasite or virus in culture. Format: cell-based, Candida albicans. The following applies: broth microdilution, 30°C. Here is the method: In this project, we used a clinical isolate of C. albicans obtained from Tim Planche (St. George’s, University of London).
Mueller-Hinton broth (MHb) (Merck, Life Science UK Limited, Dorset, UK) was prepared to concur with the manufacturer’s directions and supplemented with 2% glucose to grow C. albicans. Liquid cultures were incubated at 30°C for 18–20 h on a shaker, and culture on solid media was incubated for 18–24 h at 30°C.
When it comes to determining the antimicrobial activity of antimicrobial peptides (AMPs) there are unfortunately many different approaches reported. Many AMPs are negatively affected by positively charged ions and other components of growth media, therefore Mueller-Hinton broth (MHb) is frequently used since it supports the growth of many organisms and seems to interfere little with the activity of most AMPs. The […] of Flucytosine and antifungal peptides were determined using a protocol (option E) of the highly cited publication by [Wiegand et al. (2008)] optimized for the work with antimicrobial peptides. This protocol uses MHb (0.2% beef extract, 1.75% casein hydrolysate). To adopt that media for the growth of yeast 2% glucose was added. For comparison, YPD complex medium (1% yeast extract, 2% peptone, 2% dextrose) is often used for the growth of yeast. Where this media provides the best activity for antimicrobial peptides the results should be carefully used when comparing MIC values to other antifungals measured in different growth media. A broth microdilution assay was applied using 6 × 10^5 CFU/mL at 30°C. MICs were determined by the unaided eye, as the concentration in which no growth was observed.
Background: Broth dilution looks for growth in wells or tubes with falling amounts of substance.

Data set [2] has as its system C. albicans. In words: BioSAXS ultrastructural changes, principal component analysis of scattering curves. Format: cell-based, Candida albicans. The conditions noted are these: 2xMIC, 40 min. Here is the method:
A detailed description of the sample preparation for BioSAXS, the BioSAXS measurement and consequently the data evaluation methods can be found in the open-source publication by [Von Gundlach et al. (2019)]. Briefly, an aliquot of an overnight culture of a clinical isolate of C. albicans was diluted in Mueller-Hinton broth (MHb) and incubated for 2.5 h at 30°C on a shaker (225 rpm) to achieve log phase growth. The C. albicans culture was adjusted to have 1.2 × 10^6 CFU/mL and aliquoted. The aliquots were then mixed with either sterile water or antifungal solution (2xMIC) to provide 6 × 10^5 CFU/mL aliquots. Those were further incubated for 40 min at 30°C at 225 rpm. All aliquots were then centrifuged at 10,000 rpm and washed 3 times in ml 0.1 M PIPES [piperazine-N,N′-bis(2-ethanesulfonic acid)] buffer, pH 7.0. After washing, the pellet was resuspended in 1 mL of 2.5% glutaraldehyde v/v in PIPES buffer and fixated for 1 h at room temperature at 225 rpm. Consequently, the samples were washed 3 times with PBS buffer and resuspended in 100 µL of PBS and stored at 5°C.
The SAXS measurements were performed on the P12 BioSAXS beamline, EMBL (DESY, Hamburg), using a double crystal Si (111) monochromator. An energy of 10 keV with a 10^13 s^−1 photon flux was used. 30 μL of each sample was injected into the measuring chamber by an automatic sample robot (Arinax, BioSAXS), the focus of the X-ray beam was 0.2 × 0.12 mm. The scattering signal was recorded with a Pilatus 2 M detector (Dectris, Switzerland). For each sample, 20 measurements were made with 0.05 s exposure. Before and after each measurement the background was measured and automatically subtracted from the SAXS curves. Data analysis and evaluation were done using the open-source software SciXMiner (“Peptide Extension”) ([Mikut, 2010]; [Mikut et al., 2017]). To determine differences in the scattering curves between treated and untreated samples as well as between the different treatments a principal component analysis (PCA) was applied to the scattering curves. The data are measurements of about 100,000 cells that were measured 20 times to obtain the scattering curves. SAXS curves were averaged and the standard deviation was used as an error bar. The PCA analysis was carried out in the frequency range between 0.05–0.4 nm^−1, and errors were propagated from the single SAXS curves (see Supplementary Figure S1).

The subject of data set [3] is erythrocytes. More on the design: method as in 3 sources, one per row (each row's own in cited_ref): ref Cerovsky et al., 2009 ||| ref Cao et al., 2012; Almaaytah and Albalas, 2014 ||| ref Hirai et al., 1981. The conditions noted are these: cited from earlier work.
The test system of data set [4] is human erythrocytes. The conditions noted are these: no method in this paper, ref Grimsey et al., 2020; cited from earlier work.
The subject of data set [5] is sheep erythrocytes. The conditions noted are these: ref Andreu et al., 1992, Edlund et al., 1998; cited from earlier work.
Where [6] appears, read: 6 × 10^5 CFU/mL, PCA range 0.05–0.4 nm^−1.
[7] abbreviates: Mueller-Hinton broth + 2% glucose, 6 × 10^5 CFU/ml C. albicans clinical isolate, read by unaided eye, n = 3, modal values.

Consider `Nc1[nH]c(=O)ncc1F` [Flucytosine], for which the MIC in data set [1] (Candida albicans, MHb + 2% glucose, 6 × 10^5 CFU/mL C. albicans clinical isolate, read-out: MIC) came out at 8 µg/mL. In data set [2], the “PC1 value, rank in the set of six antifungal compounds” value is “second-lowest”; the “PC2 value compared to the untreated cells (direction)” value is recorded as “increased”; the “PC2 value, rank in the set of six antifungal compounds” value is on record as “highest”; the “ΔPC1 (treated versus untreated), sign” value was “positive”. Besides, in data set [2] (setting [6]), the “increase of PC2 versus untreated sample” value is “about 1 unit” and the “reduction of PC1 versus untreated sample” value was “about 6 units”.

In the case of FIGAIARLLSKIFGKR-NH2 [Bmkn2], in data set [1] (setting [7]), the “MIC” value came to 18 µM. In addition, in data set [3] (ref Cao et al., 2012, Almaaytah and Albalas, 2014), the “HC50 (hemolysis)” value is 17.13 µg/mL.

For INLKAIAALAKKLL-NH2 [Mastoparan M], the “MIC” value in data set [1] (setting [7]) was 22 µM. Further, in data set [3] (ref Hirai et al., 1981), the “hemolytic activity” value was “very little”.

With KRRVRWIIW-NH2 [OptP7], the “MIC” value in data set [1] (setting [7]) worked out at 24 µM. The “HC50 (hemolysis)” value in data set [4] is greater than 250 µg/mL.

Turning to KWKLFKKIGAVLKVL-NH2, the hemolytic activity in data set [5] was greater than 500 µg/mL. Besides, the “MIC” value in data set [1] (setting [7]) stood at 18 µM.

Take “VNWKKILGKIIKVVK-NH2 [Lasioglossin LL-III]”: the “MIC” value in data set [1] (setting [7]) was found to be 36 µM. Also, the “hemolytic and cytotoxic activity” value in data set [3] (ref Cerovsky et al., 2009) is given as “low”.
